Results taken from ChEMBL document CHEMBL4813910, “Curse or Cure? A Perspective on the Developability of Aldehydes as Active Pharmaceutical Ingredients” (J Med Chem, 2020).
Each block holds one molecule with its values, some of them ahead of it.

Tests used:
[1] = Drug excretion in human urine measured for 24 hrs; format: ADME, tissue-based; settings: read-out: Drug excretion
[2] = Tmax in human at 0.03 mg/kg, po; format: ADME, organism-based; settings: in vivo
[3] = Drug excretion in human urine at 0.46 mg/kg dosed-dermally measured for 24 hrs; format: ADME, organism-based; settings: topical or ocular, read-out: Drug excretion
[4] = Oral bioavailability in human at 0.03 mg/kg; format: ADME, organism-based; settings: in vivo
[5] = Half life in human at 0.03 mg/kg, po; format: ADME, organism-based; settings: in vivo
[6] = Dermal bioavailability in human at 0.46 mg/kg; format: ADME, organism-based; settings: in vivo, topical or ocular
[7] = Oral bioavailability in human at 0.7 mg/kg; format: ADME, organism-based; settings: in vivo
[8] = Half life in human at 0.7 mg/kg, po; format: ADME, organism-based; settings: in vivo
[9] = Bioavailability in human at 10.3 mg; format: ADME, organism-based; settings: in vivo
[10] = Drug excretion in human urine at 0.7 mg/kg, po measured after 8 to 24 hrs; format: ADME, organism-based; settings: time 8-24 hrs, read-out: Drug excretion
[11] = Volume of distribution in human at 20 mg/kg, iv measured over 1 hr; format: ADME, organism-based; settings: in vivo
[12] = Ratio of drug level in human erythrocytes to plasma at 20 mg/kg, iv measured over 1 hr; format: ADME, organism-based
[13] = AUC (0 to 24 hrs) in human at 20 mg/kg, iv measured over 1 hr; format: ADME, organism-based; design: route intravenous, time 1 hrs, dose 20 mg/kg; settings: in vivo
[14] = Elimination half life in human at 20 mg/kg, iv measured over 1 hr; format: ADME, organism-based; settings: in vivo, read-out: beta t1/2 (converted)
[15] = Half life in human liver supernatant; format: ADME, subcellular, Supernatent
[16] = Cmax in human at 0.25%, OU administered once daily for 7 days; format: ADME; design: dose 0.25 %, time 7 day; settings: topical or ocular
[17] = Drug metabolism in human assessed as Cmax of acid metabolite at 0.25%, OU administered once daily for 7 days; format: ADME; design: dose 0.25 %, time 7 day; settings: topical_or_ocular, 168 h
[18] = Tmax in human at 0.25%, OU administered once daily for 7 days; format: ADME; settings: topical or ocular, time 7 day
[19] = Drug metabolism in human assessed as AUC (0 to infinity) of acid metabolite at 0.25%, OU administered once daily for 7 days; format: ADME; design: time 7 day, dose 0.25 %; settings: topical_or_ocular, 168 h
[20] = Drug metabolism in human assessed as Tmax of acid metabolite at 0.25%, OU administered once daily for 7 days; format: ADME; settings: topical_or_ocular, 168 h, time 7 day
[21] = Half life in human at 0.25%, OU administered once daily for 7 days; format: ADME; settings: topical or ocular, time 7 day
[22] = Protein binding in human plasma incubated for 240 mins by equilibrium dialysis; format: ADME, cell-free; settings: read-out: PPB (converted)
[23] = Drug metabolism in human assessed as half life of acid metabolite at 0.25%, OU administered once daily for 7 days; format: ADME; settings: topical_or_ocular, 168 h, time 7 day

dose excreted at 24 h [1]: 94%
Tmax [2]: 2.7 h
dose excreted at 24 h [3]: 90%
bioavailability [4]: 100%
half-life [5]: 3.28 h
bioavailability [6]: 5%
SMILES: CC(CC=O)CCCC(C)(C)O (stereo not drawn)

SMILES: O=C/C=C/c1ccccc1
bioavailability [7]: 100%
half-life [8]: < 4 h
bioavailability [9]: 9%
dose excreted [10]: 100%

Vd [11]: 0.067 L/kg
Kp at 1 h [12]: 14.3
AUC [13]: 5180 nM·h
half-life [14]: 2.2 h
SMILES: O=Cc1c(O)cccc1OCCCCC(=O)O [VELARESOL]

half-life [15]: < 0.25 h
Cmax [16]: 0.15 nM
Cmax [17]: 6 nM
Tmax [18]: 0.25 h
AUC [19]: 8.7 nM·h
Tmax [20]: 1.05 h
half-life [21]: 0.4 h
fraction unbound at 4 h [22]: 0.61
t1/2 [23]: 2 h
SMILES: CN1CCC(=C2c3ccccc3CCn3c(C=O)cnc32)CC1 [ALCAFTADINE]
